Target: T1, human hepatic GK (Homo sapiens, UniProt P35557)
T1 construct: His6 (C); made in house; host or cells: E. coli
T1 sequence (P35557 1-466 isoform P35557-2): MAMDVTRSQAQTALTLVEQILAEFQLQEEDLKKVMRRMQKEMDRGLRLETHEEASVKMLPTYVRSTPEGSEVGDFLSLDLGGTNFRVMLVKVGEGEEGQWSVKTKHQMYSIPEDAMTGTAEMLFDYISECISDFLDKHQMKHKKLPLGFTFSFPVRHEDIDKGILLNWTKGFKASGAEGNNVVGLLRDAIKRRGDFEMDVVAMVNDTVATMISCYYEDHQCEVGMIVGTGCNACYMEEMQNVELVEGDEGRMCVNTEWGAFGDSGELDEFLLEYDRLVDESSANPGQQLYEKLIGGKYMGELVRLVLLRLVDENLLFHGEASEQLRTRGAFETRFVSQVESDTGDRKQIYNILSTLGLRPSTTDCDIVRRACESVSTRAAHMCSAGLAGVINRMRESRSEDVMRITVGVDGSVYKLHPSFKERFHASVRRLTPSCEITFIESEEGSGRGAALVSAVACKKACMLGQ
Assay: GK activity measurement (G6PDH-coupled NADH production)
Type: biochemical
Conditions: GK activation; 5 mM D-glucose
Protocol: The GK activity was determined not by direct measurement of the amount of glucose-6-phosphate produced by the enzyme reaction but by measurement of the amount of NADH produced by a […] reaction.
(Preparation of Recombinant GK)
Cloning of Human Hepatic GK and Human Pancreas GK and Acquisition of Recombinant Proteins
Based on a human hepatic GK sequence available from GeneBank (Accession Number: NM_033507) and a human pancreas GK sequence (Accession Number: NM_000162), PCR cloning was performed using Pyrobest DNA Polymerase (product of Takara Bio Inc.) with human hepatic cDNA (product of Clontech Laboratories, Inc.) and human pancreas cDNA (product of Clontech Laboratories, Inc.) used as templates. […]
The test compound was dissolved in DMSO in advance, and 2 μL of the prepared solution was added to 20 μL of a solution containing the HEPES buffer solution (pH 7.1), KCl, MgCl2, D-glucose, ATP, NAD, and dithiothreitol. […] The GK was added such that an increase in absorbance per minute in the presence of 5% DMSO was between 0.002 to 0.003. After the reaction was initiated, the increase in absorbance at 340 nm was measured for 15 minutes using a SPECTRAmax 190 microplate spectrophotometer (product of Molecular Devices Corporation), and the activity was evaluated using the increase in the first 10 minutes.

EC50: ≤ 1 µM
SMILES: CS(=O)(=O)c1ccc(/C(=C\[C@H]2C[C@@H](F)[C@@H](F)C2)C(=O)Nc2nccs2)cc1 [Compound 1A, (E)-3-[(1α,3α,4α)-3,4-difluorocyclopentyl]-2-[4-(methylsulfonyl)phenyl]-N-(thiazol-2-yl)acrylamide]

Source: patent publication US9452977B2, “Cyclopentylacrylamide derivative” (KYORIN PHARMACEUTICAL CO., LTD., priority 2008, dated 2016)
